Experimental data taken from patent US11958826B1, “6′-(2-chlorophenyl)-2′-ethoxy-3,4′-bipyridine-3′- carbonitrile as an antimicrobial compound” (KING FAISAL UNIVERSITY, priority 2023, dated 2024).

How the values were obtained:
Aspergillus flavus = assay: Agar plate disc-diffusion, antifungal activity by inhibition zone; assay type: cell-based
Protocol: (§1) The agar plate disc-diffusion method was applied. […] The discs were then placed onto the surface of agar plates (nutrient agar for bacteria and Sabouraud's dextrose agar for fungi) seeded with the test organism. Each plate contained 15 ml of the agar medium, previously seeded with 0.2 mL of the broth culture of each organism pregrown for 18 hours. The plates were incubated at 37° C. for 48 hours and 72 hours for fungi. The inhibition zones were measured in mm. Discs impregnated with DMSO were used as a control, and their inhibition zone was subtracted from the tested compound's actual inhibition zone.
(§2) The results of the antimicrobial testing can be observed in Tables 1 and 2, below, with ciprofloxacin serving as a reference.

[1] = tested on: Chrysosporium keratinophilum; assay: as above; assay type: cell-based
Protocol: as §1, §2

Bacillus Cereus = assay: Agar plate disc-diffusion, antibacterial activity by inhibition zone; assay type: cell-based; details: Bacillus Cereus (Gram positive)
Protocol: as §1, §2

Pseudomonas aeruginosa = assay: as above; assay type: cell-based; details: Pseudomonas aeruginosa (Gram negative)
Protocol: as §1, §2

Staphylococcus aureus = assay: as above; assay type: cell-based; details: Staphylococcus aureus (Gram positive)
Protocol: as §1, §2

Escherichia coli = assay: as above; assay type: cell-based; details: Escherichia coli (Gram negative)
Protocol: as §1, §2

[2] = A = concentration of comp. = 10,000 μL
[3] = B = concentration of comp. = 30.000 μL
[4] = C = concentration of comp. = 50,000 μL

## CCOc1nc(-c2ccccc2Cl)cc(-c2cccnc2)c1C#N [Compound 4, 6′-(2-chlorophenyl)-2′-ethoxy-3,4′-bipyridine-3′-carbonitrile]
other
  melting point: 156 to 158 °C
Aspergillus flavus; [2]
  inhibition zone: 20 mm
Aspergillus flavus; [3]
  inhibition zone: 24 mm
Aspergillus flavus; [4]
  inhibition zone: 35 mm
[1]; [2]
  inhibition zone: 25 mm
[1]; [3]
  inhibition zone: 27 mm
[1]; [4]
  inhibition zone: 44 mm
Bacillus Cereus; [2]
  inhibition zone: 25 mm
Bacillus Cereus; [3]
  inhibition zone: 27 mm
Bacillus Cereus; [4]
  inhibition zone: 39 mm
Pseudomonas aeruginosa; [2]
  inhibition zone: 25 mm
Pseudomonas aeruginosa; [3]
  inhibition zone: 27 mm
Pseudomonas aeruginosa; [4]
  inhibition zone: 38 mm
Staphylococcus aureus; [2]
  inhibition zone: 18 mm
Staphylococcus aureus; [3]
  inhibition zone: 24 mm
Staphylococcus aureus; [4]
  inhibition zone: 36 mm
Escherichia coli; [2]
  inhibition zone: 26 mm
Escherichia coli; [3]
  inhibition zone: 28 mm
Escherichia coli; [4]
  inhibition zone: 40 mm
